The values below come from patent US20240374738A1, “BIFUNCTIONAL COMPOUND CAPABLE OF DEGRADING RECEPTOR TYROSINE KINASE AND APPLICATION THEREOF” (TAIBIDI PHARMACEUTICAL TECHNOLOGY (SHIJIAZHUANG) CO., LTD., priority 2023, published 2024).

Holding throughout (type): cell-based
Test [1] addresses T1, DDR1 (Homo sapiens, UniProt Q08345). The experiment in a line: Experiments with inhibitors of the ubiquitin-proteasome system (DDR1 Western blot). The settings on record: MG132 10 uM or MLN4924 1 uM for 6 hours, then TPD12140 100 nM 18 h. More on the design: endogenous in cells; host or cells: unnamed tumor cells. The method, then:
Tumor cells were inoculated into 6-well plates with 1-3×10^5 cells per well, and the cell growth status was observed the next day. When the cells grew to about 80% confluence, the proteasome inhibitor MG132 (working concentration 10 uM) or the protein ubiquitination inhibitor MLN4924 (working concentration 1 uM) was added to the cell culture medium of the experimental group, and an equal volume of DMSO was added to the control group, and the incubation was continued for 6 hours. The medium in the well plates was discarded, washed twice with PBS, fresh medium was added, and compound TPD12140 (working concentration 100 nM) or an equal volume of DMSO was added to each group of cells, and the incubation was continued for 18 h. Western Blot was performed to detect the expression of DDR1 protein (same operation as above). The experiments were repeated three times or more, and the experimental data were statistically analyzed using GraphPad Prism software.

For the next test, the system named is MKN45. Put plainly: Growth inhibition of gastric cancer cells MKN45 (CCK-8). The settings on record: Homo sapiens, MKN-45, half inhibitory concentration, 72 hours. A digest of the protocol: (§1)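 MKN45 or SNU5 cells in 96-well plates were treated with compound dilution series in triplicate for 72 h. Viability was read by CCK-8 (1 h, absorbance 450 nm), and inhibition was calculated against blank and medium-only controls. IC50 came from concentration-response curves.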

A further test deals with SNU5. The experiment in a line: Growth inhibition of gastric cancer cells SNU5 (CCK-8). The conditions noted are these: Homo sapiens, SNU-5, half inhibitory concentration, 72 hours. A digest of the protocol:
as §1

Test [2] deals with T1, DDR1. The experiment in a line: Degradation of DDR1 in tumor cell MKN45 (Western blot). More on the design: The degradation activity of the compounds against DDR1 in the MKN45 cell line; endogenous in cells; host or cells: MKN45. The settings on record: MKN-45, maximum degradation percentage, MKN45 cells, 24 hours. A digest of the protocol:
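MKN45 gastric cancer cells were treated with compound dilutions for 24 h at a final DMSO of 0.5%; the 2 mM–200 nM series is the added solution, not the final concentration. DDR1 in lysates was quantified by Western blot, normalized to GAPDH and expressed relative to blank control, giving DC50 and Dmax.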
For orientation: A western blot detects proteins with antibodies after separation by electrophoresis.

Test [3] has as its target T1, DDR1. The experiment in a line: Competition inhibition experiments (DDR1 Western blot). More on the design: endogenous in cells; host or cells: unnamed tumor cells. The settings on record: TPD12140 100 nM plus different concentrations of competitor, 24 h. The method, then:
Tumor cells were taken and inoculated into 6-well plates with 1×3×10^5 cells per well, and the cell growth status was observed on the next day. When the cells reached 80% confluence, TPD12140 (working concentration 100 nM) and different concentrations of cabozantinib or lenalidomide were added to the cell culture medium of the experimental group, and the control group was added with an equal volume of DMSO, and the incubation was continued for 24 h. Western Blot was performed to detect the expression of DDR1 protein (the same operation as above). The experiments were repeated three times or more, and the experimental data were statistically analyzed using GraphPad Prism software.

pIC50: −log10 of the molar value. Where a SMILES comes first, the peptide text is derived from it. The star is where a group is joined. Cbz = O=C(OCc1ccccc1)*

T1 sequence (Q08345 19-913): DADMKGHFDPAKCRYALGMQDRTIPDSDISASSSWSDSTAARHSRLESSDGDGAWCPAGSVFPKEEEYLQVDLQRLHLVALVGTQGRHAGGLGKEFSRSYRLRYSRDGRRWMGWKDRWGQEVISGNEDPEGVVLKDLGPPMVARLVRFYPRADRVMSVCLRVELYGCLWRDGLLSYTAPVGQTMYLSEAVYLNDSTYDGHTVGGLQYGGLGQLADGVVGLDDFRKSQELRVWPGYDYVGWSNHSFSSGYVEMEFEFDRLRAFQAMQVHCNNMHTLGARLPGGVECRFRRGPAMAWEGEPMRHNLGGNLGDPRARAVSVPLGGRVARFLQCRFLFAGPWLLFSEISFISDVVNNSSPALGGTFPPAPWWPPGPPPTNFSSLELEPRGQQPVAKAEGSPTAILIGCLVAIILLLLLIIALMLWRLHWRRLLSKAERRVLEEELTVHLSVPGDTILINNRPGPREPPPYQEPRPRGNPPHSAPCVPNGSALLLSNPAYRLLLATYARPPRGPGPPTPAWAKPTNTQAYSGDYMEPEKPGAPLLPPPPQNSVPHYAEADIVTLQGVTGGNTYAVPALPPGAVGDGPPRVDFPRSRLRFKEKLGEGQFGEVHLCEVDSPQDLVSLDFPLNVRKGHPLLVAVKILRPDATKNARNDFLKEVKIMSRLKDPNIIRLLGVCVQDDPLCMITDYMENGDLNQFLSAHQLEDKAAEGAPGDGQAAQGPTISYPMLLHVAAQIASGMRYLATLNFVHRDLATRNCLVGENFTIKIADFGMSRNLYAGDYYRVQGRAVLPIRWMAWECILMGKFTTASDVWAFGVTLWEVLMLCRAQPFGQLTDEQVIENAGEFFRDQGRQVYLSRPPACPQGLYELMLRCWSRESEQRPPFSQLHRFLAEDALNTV

For `CC(C)C[C@@H](C=O)NC(=O)[C@H](CC(C)C)NC(=O)[C@H](CC(C)C)NC(=O)OCc1ccccc1` [MG132] (Cbz-Leu-Leu-Leu-aldehyde), the “effect of inhibitor on degradation of DDR1 by TPD12140” value at DDR1 [1] is “can inhibit the degradation of the compounds”.

In the case of `NS(=O)(=O)OC[C@@H]1C[C@@H](n2ccc3c(N[C@H]4CCc5ccccc54)ncnc32)C[C@@H]1O` [MLN4924], the “effect of inhibitor on degradation of DDR1 by TPD12140” value on DDR1 [1] is given as “can inhibit the degradation of the compounds”.

`O=C1CCC(N2Cc3cc(C#CCCN4CC5CC(C4)N5CC4CCN(c5cc6nccc(Oc7ccc(NC(=O)C8(C(=O)Nc9ccc(F)cc9)CC8)cc7)c6cc5F)CC4)ccc3C2=O)C(=O)N1` (stereo not drawn) [TPD12237]: the pIC50 in the test on MKN45 and in the test on SNU5 was at least 7.00 each time. Besides, the Dmax (in general, the largest share of the target that was removed) on DDR1 [2] was 65 to 75%.

Consider `COc1cc2c(Oc3ccc(NC(=O)C4(C(=O)Nc5ccc(F)cc5)CC4)cc3)ccnc2cc1N1CCC(CN2C3CC2CN(CCC=Cc2cc4c(cn2)C(=O)N(C2CCC(=O)NC2=O)C4)C3)CC1` (stereo not drawn) [TPD12238], for which the pIC50 in the test on MKN45 and in the test with SNU5 was at least 7.00 in each case. At DDR1 [2], this compound came in with a Dmax of 65 to 75%.

As for `COc1cc2nccc(Oc3ccc(NC(=O)C4(C(=O)Nc5ccc(F)cc5)CC4)cc3)c2cc1OC` [cabozantinib, reference compound], the pIC50 in the test on MKN45 and in the test with SNU5 was at least 7.00 throughout. At DDR1 [2], the Dmax is below 50%.

Consider `Nc1cccc2c1CN(C1CCC(=O)NC1=O)C2=O` (stereo not drawn) [lenalidomide], for which the “effect of competitor on degradation of DDR1 by TPD12140” value on DDR1 [3] is given as “inhibits the degradation of DDR1 by the compound”.
